Laboratory results reported in patent US20240270701A1, “BETA ADRENERGIC AGONIST AND METHODS OF USING THE SAME” (Curasen Therapeutics, Inc., priority 2021, published 2024).
Where two headings read alike, the source gives them in different places.

Tests used:
B1-AR = molecular target: T1, B1-AR (Homo sapiens, UniProt P08588); assay: cAMP Gs dynamic HTRF assay, cells expressing beta-adrenergic receptor (CHO-K1), B1-AR; assay type: cell-based; conditions: for EC50: read-out: pEC50 [B1-AR] (converted); for Emax: read-out: Emax (% iso) (%) [B1-AR]
T1 construct: expressed in transfected cells; host or cells: CHO-K1
Procedure: (§1) cAMP homogeneous time-resolved fluorescence (HTRF): experimental methods. Compound efficacy is determined using the cAMP Gs dynamic HTRF assay (Cisbio, catalog #62AM4PEC) largely following the manufacturer's instructions, also detailed below.
(§2) Standard serial dilution curves are 10-point, 5-fold dilutions starting from a highest concentration of 10 μM. Controls present on every assay plate are 0.1% DMSO (vehicle control), 1 μM isoproterenol (full beta-adrenergic agonist control) and […] xamoterol (partial beta-adrenergic agonist control). […] Assay plates are centrifuged at 500×g for 10 seconds. Compounds and IBMX are prepared at 2× final dose to compensate for addition of cells.
(§3) Cell preparation: 1× stimulation buffer, washing PBS (Dulbecco's phosphate-buffered saline, − Mg − Ca; Caisson Labs, catalog #PBL01), assay PBS (Dulbecco's phosphate-buffered saline, + Mg, + Ca; Caisson Labs, catalog #PBL02) and Versene (0.02% EDTA disodium salt solution in PBS without calcium or magnesium; Caisson Labs, catalog #EDL01) are pre-warmed to 37° C. Cells expressing beta-adrenergic receptor were washed in washing PBS to remove growth medium and then released from the surface by incubating with Versene for 5-10 minutes at 37° C. Cells are harvested using assay PBS, counted manually by hemocytometer or by an automated cell counter, pelleted by centrifugation (200×g, 5 minutes) and resuspended in 37° C. 1× stimulation buffer to a final density of 1.5×10^6 cells/mL. 5 μL of the suspended cell solution (7500 cell total) are added to all wells of the 384 well assay plate, the assay plate was covered with an Axygen® plate seal (Corning PCR-SP) and incubated in a humidified 37° C. environment supplemented with 5% CO2 for 30 minutes.
(§4) HTRF reagent addition, reading and data analysis: After 30 minutes of cell stimulation with test compound, the assay plates are centrifuged at 500×g for 10 seconds, and incubation was stopped with the addition of 5 μL cAMP-D2 acceptor, diluted 1:21 in detection and lysis buffer 2 (Cisbio 62CL2FDF) was added to all cells. Subsequently, 5 μL Anti-cAMP-Eu Donor, diluted 1:21 in detection and lysis buffer 2, was added to cells. Plates were sealed and reactions gently ‘vortexed’ at 900 rpm on a Heidolph Titramax 1000 for at least 30 minutes at room temperature. Plates are centrifuged again at 500×g for 10 seconds, and HTRF was measured using a Tecan Spark plate reader at 50 flashes per well. […] Potency estimates (EC50 and pEC50) are derived from the four-parameter nonlinear regression of the concentration-effect curve and an estimate of relative efficacy is determined by comparing the magnitude of the test compound HTRF signal window (min−max dose) with the signal window of the full agonist control, isoproterenol.

B2-AR = molecular target: T2, B2-AR (Homo sapiens, UniProt P07550); assay: cAMP Gs dynamic HTRF assay, cells expressing beta-adrenergic receptor (CHO-K1), B2-AR; assay type: cell-based; conditions: for EC50: read-out: pEC50 [B2-AR] (converted); for Emax: read-out: Emax (% iso) (%) [B2-AR]
T2 construct: expressed in transfected cells; host or cells: CHO-K1
Procedure: as §1, §2, §3, §4

[1] = relative to full agonist isoproterenol
[2] = CHO-K1 cells, relative to full agonist isoproterenol
[3] = CHO-K1, CHO-K1 cells, relative to full agonist isoproterenol

T1 sequence (P08588 whole entry, species assumed): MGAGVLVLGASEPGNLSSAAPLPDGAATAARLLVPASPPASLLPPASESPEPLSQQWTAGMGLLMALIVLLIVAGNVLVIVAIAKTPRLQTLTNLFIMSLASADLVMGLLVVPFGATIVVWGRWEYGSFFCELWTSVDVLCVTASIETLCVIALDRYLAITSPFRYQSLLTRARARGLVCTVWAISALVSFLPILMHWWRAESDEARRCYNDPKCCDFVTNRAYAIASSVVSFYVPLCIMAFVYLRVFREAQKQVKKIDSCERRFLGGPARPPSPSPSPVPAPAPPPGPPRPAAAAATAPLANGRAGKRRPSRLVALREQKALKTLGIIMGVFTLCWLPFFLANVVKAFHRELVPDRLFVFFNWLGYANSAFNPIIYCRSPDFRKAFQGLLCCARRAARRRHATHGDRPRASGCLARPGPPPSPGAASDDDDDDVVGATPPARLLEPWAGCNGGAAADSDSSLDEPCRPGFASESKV
T2 sequence (P07550 whole entry, species assumed): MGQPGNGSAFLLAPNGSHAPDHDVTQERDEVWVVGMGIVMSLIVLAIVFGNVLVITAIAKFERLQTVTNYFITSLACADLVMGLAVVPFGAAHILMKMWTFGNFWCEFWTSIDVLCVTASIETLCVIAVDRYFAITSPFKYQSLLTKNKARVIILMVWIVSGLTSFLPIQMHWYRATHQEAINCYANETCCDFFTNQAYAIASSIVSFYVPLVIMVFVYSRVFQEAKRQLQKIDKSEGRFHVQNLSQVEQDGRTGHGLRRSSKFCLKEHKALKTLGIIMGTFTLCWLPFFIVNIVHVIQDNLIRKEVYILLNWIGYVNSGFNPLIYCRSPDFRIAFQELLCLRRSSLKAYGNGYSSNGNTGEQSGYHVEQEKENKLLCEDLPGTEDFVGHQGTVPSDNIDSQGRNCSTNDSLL

Structure (SMILES) | EC50 (B1-AR; cAMP HTRF) | Emax (B1-AR; [1]) | EC50 (B2-AR; CHO-K1 cells, cAMP HTRF) | Emax (B2-AR; [2]) | Emax (B2-AR; [3]) | pEC50 [B1-AR] (B1-AR; cAMP HTRF) | Emax (% iso) (%) [B1-AR] (B1-AR; [1]) | pEC50 [B2-AR] (B2-AR; CHO-K1 cells, cAMP HTRF) | Emax (% iso) (%) [B2-AR] (B2-AR; [2])
Cc1cnc2ccc([C@@H](O)CNC(C)(C)C)cc2c1 [I-73] | > 1000 nM | < 50% | 100 to 1000 nM | < 50% |  |  |  |  | 
COc1ccnc2ccc([C@@H](O)CNC(C)(C)C)cc12 [I-74] | 100 to 1000 nM | < 50% | > 1000 nM |  | < 50% |  |  |  | 
O[C@@H](CNCC1CC1)c1ccc(F)c2[nH]ncc12 [I-75] | < 10 nM | 70 to 90% | < 10 nM |  | > 90% |  |  |  | 
O[C@@H](CNCC1CC1)c1cccc2[nH]ncc12 [I-76] | < 10 nM | 70 to 90% | < 10 nM | > 90% |  |  |  |  | 
CC(C)(C)NC[C@H](O)c1ccc2ncncc2c1 [I-77] | > 1000 nM | 50 to 70% | 100 to 1000 nM |  | 50 to 70% |  |  |  | 
Cn1ccc(CNC[C@H](O)c2cccc3[nH]nc(F)c23)n1 [I-78] | 100 to 1000 nM | 70 to 90% | 100 to 1000 nM | > 90% |  |  |  |  | 
Cc1cc2ncccc2cc1[C@@H](O)CNC(C)(C)C [I-79] | > 1000 nM | > 90% | 100 to 1000 nM | < 50% |  |  |  |  | 
CC(C)(C)NC[C@H](O)c1cc2cccnc2cc1Cl [I-80] | 100 to 1000 nM | 70 to 90% | 10 to 100 nM |  | < 50% |  |  |  | 
CC1(CNC[C@H](O)c2ccc(F)c3[nH]ncc23)CC1 [I-81] | 10 to 100 nM | 70 to 90% | < 10 nM | > 90% |  |  |  |  | 
Cc1ccc2cc([C@@H](O)CNC(C)(C)C)ccc2n1 [I-82] | > 1000 nM | < 50% | > 1000 nM | < 50% |  |  |  |  | 
CC(C)(C)NC[C@H](O)c1ccc2nccnc2c1 [I-83] | 10 to 100 nM | 70 to 90% | 10 to 100 nM | 50 to 70% |  |  |  |  | 
Cn1ncc2c([C@@H](O)CNC(C)(C)C)cc(F)cc21 [I-84] |  |  |  |  |  | B (B=>7-8) | B (B=>70-90%) | A (A=>8) | B (B=>70-90%)
CC(C)(C)NC[C@H](O)c1cccc2c(F)n[nH]c12 [I-85] | 100 to 1000 nM | 70 to 90% | 100 to 1000 nM |  | 50 to 70% |  |  |  | 
CC(C)(C)NC[C@H](O)c1cnc(N)s1 [I-86] | > 1000 nM | 70 to 90% | 100 to 1000 nM |  | 70 to 90% |  |  |  | 
CC(C)(C)CNC[C@H](O)c1ccc(F)c2[nH]ncc12 [I-87] | 100 to 1000 nM | 50 to 70% | 10 to 100 nM | 70 to 90% |  |  |  |  | 
CC(C)(C)CNC[C@H](O)c1cccc2[nH]ncc12 [I-88] | 100 to 1000 nM | 70 to 90% | < 10 nM | > 90% |  |  |  |  | 
CC(C)(C)CNC[C@H](O)c1cccc2[nH]nc(F)c12 [I-90] | 100 to 1000 nM | 70 to 90% | 10 to 100 nM |  | > 90% |  |  |  | 
CC1C(=O)Nc2cccc([C@@H](O)CNC(C)(C)C)c21 (stereo partly drawn) [I-91] | > 1000 nM | < 50% | > 1000 nM | < 50% |  |  |  |  | 

Structure (SMILES) | EC50 (B1-AR; cAMP HTRF) | Emax (B1-AR; [1]) | EC50 (B2-AR; CHO-K1 cells, cAMP HTRF) | Emax (B2-AR; [2]) | Emax (B2-AR; [3]) | pEC50 [B1-AR] (B1-AR; cAMP HTRF) | Emax (% iso) (%) [B1-AR] (B1-AR; [1]) | pEC50 [B2-AR] (B2-AR; CHO-K1 cells, cAMP HTRF) | Emax (% iso) (%) [B2-AR] (B2-AR; [2])
CC(C)(C)CNC[C@H](O)c1cc(F)cc2[nH]ncc12 [I-92] | 10 to 100 nM | 70 to 90% | < 10 nM |  | > 90% |  |  |  | 
Cn1c(=O)[nH]c2cccc([C@@H](O)CNC(C)(C)C)c21 [I-93] | > 1000 nM | 70 to 90% | > 1000 nM | > 90% |  |  |  |  | 
CC(C)(C)NC[C@H](O)c1cccc2[nH]c(=O)[nH]c12 [I-94] | 100 to 1000 nM | 70 to 90% | 100 to 1000 nM | 70 to 90% |  |  |  |  | 
CC(C)(C)NC[C@H](O)c1cccc2[nH]nc(C(N)=O)c12 [I-95] | 100 to 1000 nM | 70 to 90% | 100 to 1000 nM | 50 to 70% |  |  |  |  | 
CC1(NC[C@H](O)c2cccc3[nH]nc(Cl)c23)CCC1 [I-96] | < 10 nM | 70 to 90% | < 10 nM | > 90% |  |  |  |  | 
O[C@@H](CNC1CCC1)c1cccc2[nH]nc(Cl)c12 [I-97] | 10 to 100 nM | 70 to 90% | < 10 nM | > 90% |  |  |  |  | 
O[C@@H](CNC1CC1)c1cccc2[nH]nc(Cl)c12 [I-98] | 10 to 100 nM | 70 to 90% | < 10 nM | 70 to 90% |  |  |  |  | 
CC(C)CNC[C@H](O)c1cccc2[nH]nc(Cl)c12 [I-99] | 100 to 1000 nM | 70 to 90% | 10 to 100 nM | 70 to 90% |  |  |  |  | 
CC1(NC[C@H](O)c2cccc3[nH]nc(Cl)c23)CC1 [I-100] | < 10 nM | 70 to 90% | < 10 nM |  | > 90% |  |  |  | 
CC(C)NC[C@H](O)c1cccc2[nH]nc(Cl)c12 [I-101] | < 10 nM | > 90% | < 10 nM | > 90% |  |  |  |  | 
CC(C)(C)NC[C@H](O)c1ccc(OC(F)F)c2[nH]ncc12 [I-102] | 100 to 1000 nM | 50 to 70% | < 10 nM |  | < 50% |  |  |  | 
CC(C)(C)NC[C@H](O)c1cc(C2CC2)cc2[nH]ncc12 [I-103] | > 1000 nM | 50 to 70% | 10 to 100 nM |  | 50 to 70% |  |  |  | 
CC(C)c1cc([C@@H](O)CNC(C)(C)C)c2cn[nH]c2c1 [I-104] | > 1000 nM | 70 to 90% | 100 to 1000 nM |  | 70 to 90% |  |  |  | 
CCc1cc([C@@H](O)CNC(C)(C)C)c2cn[nH]c2c1 [I-105] | > 1000 nM | < 50% | 100 to 1000 nM |  | < 50% |  |  |  | 
CC(C)(C)NC[C@H](O)c1cc(OC(F)F)cc2[nH]ncc12 [I-106] | 100 to 1000 nM | 70 to 90% | 10 to 100 nM |  | 50 to 70% |  |  |  | 
CC1(NC[C@H](O)c2cccc3[nH]cc(F)c23)CC1 [I-107] | < 10 nM | > 90% | < 10 nM |  | > 90% |  |  |  | 
O[C@@H](CNC1CC1)c1cccc2[nH]cc(F)c12 [I-108] | 10 to 100 nM | > 90% | 10 to 100 nM |  | > 90% |  |  |  | 
CC(C)(CO)NC[C@H](O)c1cccc2[nH]cc(F)c12 [I-109] | 10 to 100 nM | > 90% | 10 to 100 nM | > 90% |  |  |  |  | 
